Experimental data reported in patent US20090087909A1, “Use of Trehalose in Conifer Somatic Embryogenesis to Increase Germination Vigor” (Weyerhaeuser Company, priority 2007, published 2009).

System: Somatic embryos of Loblolly pine, genotypes C and D
Test: Germination rate, yield, germinants/ml, root and hypocotyl length, genotypes C and D (Example 4)
Assay type: cell-based, Loblolly pine (Pinus taeda)
Experimental: Methods: Somatic embryos of Loblolly pine, genotypes C and D, were cultured as described in EXAMPLE 1 up to incubation in the maintenance media. After incubation in maintenance media using the methods described in EXAMPLE 1, advanced early stage somatic embryos were plated on semi-solid development medium BM3 (with 25 ppm ABA, 1% glucose and 2.5% maltose) at 25 embryos per plate, 15 plates per genotype. Specifically, at five weeks after plating, the media for 10 treatment plates per genotype were replaced with modified development media BM3 containing 5 ppm ABA instead of 25 ppm ABA. […]
After development, the embryos were transferred to stratification medium BM4, and germinated on medium BM5, as described in EXAMPLE 1. After 6 weeks incubation on germination medium, the embryos were assessed for germination rate, root length, hypocotyls length, and epicotyl length. […]
Plate yield was determined during singulation at eight weeks by counting the number of embryos present. […]
Data for germination rate was analyzed with a generalized linear model with a logit link. Yield, germinants/ml, root length, and hypocotyl length data were analyzed with a mixed linear model. […] When variance among all ten treatments was detected, the response means for the trehalose treatments only were compared using Fisher's LSD for multiple comparisons.

## OC[C@H]1O[C@H](O[C@H]2O[C@H](CO)[C@@H](O)[C@H](O)[C@H]2O)[C@H](O)[C@@H](O)[C@@H]1O [trehalose, α-D-glucopyranosyl-[1,1]-α-D-glucopyranoside]
Combined genotypes C and D
  Hypocotyl Length LS mean: positive effect on the hypocotyl length
Genotype C
  Root Length genotype C mean: induces greater root length development
